# In US20190125753A1, “COMPOUNDS AND METHODS FOR INCREASING HEMATOPOIESIS” (University of Southern California, priority 2016, published 2019):
# Tests used:
# [1] = biological target: T1, CBP/γ-catenin interaction (Mus musculus, UniProt P45481); assay: Co-IP of bone marrow Sca-1posit cells from treated mice (anti-CBP); format: in vivo; conditions: YH250 2 mg/kg subcutaneously, 24 hrs
# T1 construct: bone marrow Sca-1posit cells were isolated with Anti-Sca-1 microbeads; from tissue; host or cells: bone marrow Sca-1 positive cells of female C57/Black mice dosed in vivo
# Protocol: YH250 was used in this study. Female C57/Black mice were administrated with either DMSO (solvent control) or YH250 (2 mg/kg) subcutaneously. 24 hrs later, bone marrow Sca-1posit cells were isolated with Anti-Sca-1 microbeads (Miltenyi Biotec, Cat#130-092-529) for co-immunoprecipitation (FIG. 4A). Cells were then lysed and incubated with either anti-CBP (A22) or anti-p300 (C20) antibodies. Then, the immunoprecipitation complex were electrophoresed and detected with antibodies to either β-catenin or γ-catenin. […] This confirms that YH250 directly disrupts the p300/catenin interaction thereby enhancing the CBP/catenin interaction in HSPCs.
# mouse bone marrow cells [2] = assay: CFU-S12 assay (treated cells injected to lethally irradiated mice); format: in vivo; conditions: cells treated in vitro, 12 days after injection
# Text: In CFU-S12 assay, cells treated with DMSO or YH250 were recovered from plate and injected to lethally irradiated mice (FIG. 8A), 12 days later, animals were euthanized to check spleen colony formation and spleen weight.
# cord blood cells = assay: Cord blood cells incubated 24 hrs then BMT to transgenic NSG mice; format: in vivo, human; conditions: 10 μM 24 hrs in 4GF or 6GF medium; day 28th post BMT
# Protocol: To examine p300/β-catenin antagonist YH250 effects on cord blood HSC in BMT, cord blood cells were incubated with 4GF or 6GF medium and 10 μM of YH250 for 24 hrs, then cells were recovered and transplanted to irradiated NOD.Cg-Prkdc^scidIL1rg^tmlwjlTg(CMV-[…], CSF2, KITLG)1Eva, MloySzJ; JAX stock#013062) mice, these are transgenic NSG mice expressing human interleukin-3, human GM-CSF and human stem cell factor. Blood were collected at day 28th post BMT to determine engraftment.
# bone marrow HSPC = assay: Competitive repopulation assay after 8.5Gy radiation (HSPC exhaustion); format: in vivo
# [3] = system: H9 human embryonic stem cells; assay: Maintenance of human ES cell pluripotency, 5 days; format: cell-based; conditions: 25 ng/ml Wnt3a; 500 nM YH249 or 200 nM YH250, 5 days, without FGF and TGF
# Protocol: We also determined that IQ-1 indirectly, via binding to the PR72/130 subunit of PP2A, inhibited the p300/β-catenin interaction (Id). Therefore, we anticipated that YH249/250 should also maintain mESC pluripotency in a Wnt dependent manner. To test his, R1 mESCs were cultured under feeder free conditions in the presence or absence of YH249/250 for 5 days. […] Pluripotency markers, Oct4, Nanog, Sox2, SSEA-1 and ALP, were all expressed in the cells treated with Wnt3a and YH250 (FIG. 28b). Moreover, Wnt3a could be replaced with the selective GSK-3 inhibitor CHIR99021, which activates the Wnt signaling pathway (FIG. 28a, lower panel). […] In the event, similarly to ID-8, the combination of Wnt3a and YH249/250 provided morphologically undifferentiated colonies of H9 human embryonic stem cells (hESCs) without FGF and TGF (FIG. 28c). hPSC markers were detected by ALP staining and immunofluorescence (FIG. 28d). In addition to H9 cells, two other hESC lines and a human induced pluripotent stem (iPS) cell line could be also maintained undifferentiated morphology utilizing the same conditions (not shown).
# Specifically, FIG. 28A-28D, show maintenance of ESC's pluripotency by YH249 and YH250. […] 28A, Typical colony morphologies of RI mouse ES cells cultured 5 days in [upper panel] […]
# mouse bone marrow cells [4] = assay: Colony-forming cell (CFC) assay after 4 h in vitro treatment; format: cell-based
# Protocol: Brief (less than 24 hours) treatment of HSC with YH250 or DMSO was conducted before the CFC or CFU-S12 assay. Mouse bone marrow cells were treated with DMSO (solvent control) or YH250 for 4 hours in serum free HSC expansion medium before the cells were recovered for a colony forming assay. 7-8 Days after cell plating in methylcellulose medium (Stemcell Technologies, Methocult GF M3434, Cat#3434), colonies were scored, and the cells from each plate were recovered and counted.
# In fact, they also show similar biological functions with respect to HSPC.
# mouse bone marrow cells [5] = assay: 3-day in vitro culture of bone marrow cells, FACS; format: cell-based; conditions: 0.5 μM, 3 days, 200,000 live cells analyzed
# Protocol: Mouse bone marrow cells were isolated and cultured in QBSF-58 medium with DMSO or YH250 0.5 μM (medium contains 10 ng/ml of SCF, TPO, Flt3 ligand, and IL-6) for 3 days and cells are recovered and analyzed for HSC surface markers with FACS.
# [6] = 4 hours incubation then CFC assay
# T1 sequence (P45481 2-2441 limits assumed): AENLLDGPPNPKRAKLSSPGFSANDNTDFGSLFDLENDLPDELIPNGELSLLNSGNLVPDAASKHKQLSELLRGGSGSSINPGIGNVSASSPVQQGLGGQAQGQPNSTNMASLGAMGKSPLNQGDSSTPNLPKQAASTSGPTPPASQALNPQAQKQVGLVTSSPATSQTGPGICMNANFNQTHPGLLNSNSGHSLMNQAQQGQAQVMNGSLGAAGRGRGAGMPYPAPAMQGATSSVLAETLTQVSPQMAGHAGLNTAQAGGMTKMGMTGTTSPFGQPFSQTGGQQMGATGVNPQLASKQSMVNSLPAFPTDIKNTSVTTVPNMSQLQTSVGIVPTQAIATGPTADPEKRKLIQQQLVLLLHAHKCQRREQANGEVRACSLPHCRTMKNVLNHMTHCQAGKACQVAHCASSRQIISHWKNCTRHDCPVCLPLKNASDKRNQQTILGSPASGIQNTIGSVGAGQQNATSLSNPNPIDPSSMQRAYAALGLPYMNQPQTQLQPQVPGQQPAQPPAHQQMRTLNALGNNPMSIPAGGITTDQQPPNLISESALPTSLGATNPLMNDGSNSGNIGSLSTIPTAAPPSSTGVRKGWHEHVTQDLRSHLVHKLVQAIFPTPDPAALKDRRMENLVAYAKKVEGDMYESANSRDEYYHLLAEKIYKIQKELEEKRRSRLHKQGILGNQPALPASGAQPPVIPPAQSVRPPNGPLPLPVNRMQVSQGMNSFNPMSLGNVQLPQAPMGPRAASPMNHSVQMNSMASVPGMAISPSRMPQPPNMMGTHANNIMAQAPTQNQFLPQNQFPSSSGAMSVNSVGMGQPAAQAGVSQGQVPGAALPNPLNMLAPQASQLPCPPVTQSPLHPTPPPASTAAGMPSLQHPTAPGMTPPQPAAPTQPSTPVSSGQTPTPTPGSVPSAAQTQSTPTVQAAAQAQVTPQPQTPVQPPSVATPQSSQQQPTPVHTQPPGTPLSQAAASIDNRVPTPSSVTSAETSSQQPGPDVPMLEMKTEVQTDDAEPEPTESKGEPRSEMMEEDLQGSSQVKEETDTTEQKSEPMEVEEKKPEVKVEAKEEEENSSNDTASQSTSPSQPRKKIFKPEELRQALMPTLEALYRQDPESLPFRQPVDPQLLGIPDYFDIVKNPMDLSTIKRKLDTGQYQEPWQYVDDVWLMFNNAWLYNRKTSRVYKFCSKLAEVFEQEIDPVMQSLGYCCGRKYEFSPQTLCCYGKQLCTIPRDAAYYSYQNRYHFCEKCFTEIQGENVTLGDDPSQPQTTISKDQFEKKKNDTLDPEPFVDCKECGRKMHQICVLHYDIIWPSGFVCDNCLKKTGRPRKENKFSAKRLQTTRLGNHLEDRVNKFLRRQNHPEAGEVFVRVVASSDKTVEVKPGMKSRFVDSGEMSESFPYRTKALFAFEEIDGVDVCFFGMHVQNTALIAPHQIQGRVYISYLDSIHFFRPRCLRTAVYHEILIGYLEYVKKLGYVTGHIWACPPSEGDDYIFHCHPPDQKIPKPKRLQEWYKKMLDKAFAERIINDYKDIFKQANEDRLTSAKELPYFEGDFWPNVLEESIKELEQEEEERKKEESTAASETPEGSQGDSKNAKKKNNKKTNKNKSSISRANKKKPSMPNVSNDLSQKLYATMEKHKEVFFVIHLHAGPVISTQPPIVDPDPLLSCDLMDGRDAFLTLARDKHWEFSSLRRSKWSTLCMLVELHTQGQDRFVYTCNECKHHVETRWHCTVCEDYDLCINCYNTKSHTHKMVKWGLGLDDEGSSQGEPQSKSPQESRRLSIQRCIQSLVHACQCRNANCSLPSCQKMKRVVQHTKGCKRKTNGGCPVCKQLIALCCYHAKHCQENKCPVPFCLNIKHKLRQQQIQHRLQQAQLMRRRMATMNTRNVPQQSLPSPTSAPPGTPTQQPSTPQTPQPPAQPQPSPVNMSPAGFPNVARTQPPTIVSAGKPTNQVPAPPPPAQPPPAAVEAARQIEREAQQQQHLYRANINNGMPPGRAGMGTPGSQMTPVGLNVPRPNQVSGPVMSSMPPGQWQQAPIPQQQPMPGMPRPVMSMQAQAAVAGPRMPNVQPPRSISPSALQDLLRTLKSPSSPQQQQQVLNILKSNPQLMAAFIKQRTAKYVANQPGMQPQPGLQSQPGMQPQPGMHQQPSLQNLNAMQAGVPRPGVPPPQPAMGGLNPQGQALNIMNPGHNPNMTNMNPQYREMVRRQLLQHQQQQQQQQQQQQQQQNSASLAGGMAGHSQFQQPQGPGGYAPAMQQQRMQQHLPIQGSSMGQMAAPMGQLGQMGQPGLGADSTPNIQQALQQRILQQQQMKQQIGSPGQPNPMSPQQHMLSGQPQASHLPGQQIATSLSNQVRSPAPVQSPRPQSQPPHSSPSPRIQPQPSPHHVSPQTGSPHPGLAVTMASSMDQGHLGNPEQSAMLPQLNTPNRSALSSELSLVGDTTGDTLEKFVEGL
structure (smiles),measurement,setting,value
COc1cccc(CNC(=O)N2C3CN(Cc4cc(Cl)cc(Cl)c4N(C)C)C(=O)[C@H](Cc4ccc(O)cc4)N3C(=O)CN2C)c1OC (some centres unmarked) [YH250],CBP/γ-catenin interaction,[1],promotes CBP/γ-catenin interaction
same,spleen colonies (CFU-S12),mouse bone marrow cells [2],larger colonies on spleen
same,spleen weight (CFU-S12),mouse bone marrow cells [2],heavier spleen
same,human CD34posit cells in blood vs DMSO treated cells,cord blood cells,more human CD34posit cells
same,engraftment level vs DMSO treated animals,bone marrow HSPC; bone marrow from 8.5Gy irradiated animals,similar
same,HSPC exhaustion,bone marrow HSPC; one dose 24 hours post lethal dose radiation,does not exhaust HSPC
same,hESC pluripotency,[3],maintain pluripotency
same,CELL#/plate,mouse bone marrow cells [4]; [6],9.5 × 10^5
same,CFC#/plate,mouse bone marrow cells [4]; [6],29
same,CFC colony number vs DMSO,"mouse bone marrow cells [4]; 4 hours treatment, serum free medium, scored 7-8 days after plating",not significantly different
same,cell number in each plate vs DMSO,"mouse bone marrow cells [4]; 4 hours treatment, cells recovered from plate",increased cell number in each plate
same,LSK 48 − 150+ %,mouse bone marrow cells [5],16%
same,LSK 135 + 34+ %,mouse bone marrow cells [5],67%
same,LSK 135 + 34+ Cell#,mouse bone marrow cells [5],4263
same,LSK 135 − 34+ %,mouse bone marrow cells [5],25%
same,LSK 135 − 34+ Cell#,mouse bone marrow cells [5],1602
same,LSK 135 − 34− %,mouse bone marrow cells [5],7%
same,LSK 135 − 34− Cell#,mouse bone marrow cells [5],445
same,LSK %,mouse bone marrow cells [5],16%
same,LSK Cell#,mouse bone marrow cells [5],6340
same,Lin-neg %,mouse bone marrow cells [5],20%
same,Lin-neg Cell#,mouse bone marrow cells [5],40015
same,LSK 48 − 150+ Cell#,mouse bone marrow cells [5]; DMSO 607,992
